Here are results for 10 compounds from patent US8513422B2, “Piperidine derivative” (Astellas Pharma Inc., priority 2007, dated 2013).

The target of one data set is T1, human 17βHSD type 5 (Homo sapiens, UniProt P42330).
T1 construct: A full-length cDNA encoding human 17βHSD type 5 used in the pharmacological test of the present invention; made in house; host or cells: Escherichia coli BL21
T1 sequence (P42330 1-323): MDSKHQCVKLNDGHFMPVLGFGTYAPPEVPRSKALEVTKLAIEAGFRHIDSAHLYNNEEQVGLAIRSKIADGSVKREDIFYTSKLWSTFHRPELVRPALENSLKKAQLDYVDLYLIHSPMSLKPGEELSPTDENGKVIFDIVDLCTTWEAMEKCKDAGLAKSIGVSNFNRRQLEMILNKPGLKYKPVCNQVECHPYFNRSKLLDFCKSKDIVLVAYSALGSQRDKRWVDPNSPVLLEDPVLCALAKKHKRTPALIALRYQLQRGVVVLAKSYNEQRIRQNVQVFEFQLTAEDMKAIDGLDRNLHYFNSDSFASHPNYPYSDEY
As to the kind of experiment: Measurement of enzyme activity of human 17βHSD type 5 (testosterone production from androstenedione, DELFIA). Format: biochemical. The following applies: purified enzyme 10 μg/mL, androstenedione 300 nM, NADPH 200 μM, pH 6.0, room temperature, 2 hours. An excerpt:
A full-length cDNA encoding human 17βHSD type 5 used in the pharmacological test of the present invention was obtained by the PCR method using a cDNA derived from a human lung cancer-derived cell line, A549 cells as a template. […] Escherichia coli BL21 was transformed with a plasmid containing the cDNA and cultured on a large scale. The proteins were purified by using GSTrapFF column (manufactured by Amersham) and PreScissionProtease (manufactured by Amersham). The purification method was carried out in accordance with the instructions attached to the GSTrapFF column.
The measurement was performed in accordance with the attached instructions. The amount of reduction of testosterone production in the presence of the compound was obtained as a relative value with respect to the amount of testosterone in the absence of the enzyme set at 0% and the amount of testosterone produced in the absence of the compound set at 100%. Then, IC50 values were calculated by the Logistic regression method.

Another data set deals with T2, human 17βHSD type 3 (Homo sapiens, UniProt P37058).
T2 construct: A full-length cDNA encoding human 17βHSD type 3 used in the pharmacological test of the present invention; expressed in transfected cells; host or cells: 293 cells (human fetus kidney-derived); supernatant of disrupted cells
T2 sequence (P37058 1-310): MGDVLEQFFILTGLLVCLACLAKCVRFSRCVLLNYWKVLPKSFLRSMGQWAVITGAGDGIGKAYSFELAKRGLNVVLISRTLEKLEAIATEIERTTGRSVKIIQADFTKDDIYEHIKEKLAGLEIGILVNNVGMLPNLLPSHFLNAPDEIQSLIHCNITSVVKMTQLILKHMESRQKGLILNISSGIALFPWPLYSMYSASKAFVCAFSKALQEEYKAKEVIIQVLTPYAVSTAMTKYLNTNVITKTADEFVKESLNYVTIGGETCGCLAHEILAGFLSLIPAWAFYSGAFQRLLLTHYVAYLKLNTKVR
As to the kind of experiment: Measurement of enzyme activity of human 17βHSD type 3. Format: biochemical. The following applies: supernatant of transformed 293 cells as enzyme source. Here is the method: A full-length cDNA encoding human 17βHSD type 3 used in the pharmacological test of the present invention was obtained by the PCR method using a cDNA derived from human testis as a template. The nucleotide sequence of the obtained cDNA was analyzed by the dideoxyterminator method, and the clone matched with the known human 17βHSD type 3 sequence (GenBank accession No. BC034281) was selected. Subsequently, human fetus kidney-derived cell line, 293 cells, were transformed with a plasmid containing the cDNA, and the cells were collected 24 hours later. The collected cells were then disrupted in a phosphate buffer solution containing 5% glycerol (500 μL per 100 mm-dish of a phosphate buffer solution (pH 7.4, 200 mM) containing 5% glycerol) and centrifuged (16000 rpm, 5 min, 4° C.), and the supernatant was used as an enzyme source.
Enzyme activity was measured referring to Trevor M. Penning, et al., Biochem. J., 351, 67-77, (2000). Specifically, using a 100 mM potassium phosphate buffer (pH 6.0), (1) the enzyme purified in section 1 above at a final concentration of 10 μg/mL, (2) androstenedione at a final concentration of 300 nM, (3) NADPH at a final concentration of 200 μM, and (4) a test substance, were mixed to react at room temperature for 2 hours, and then the amount of testosterone produced was measured using DELFIA (registered trademark) Testosterone Reagents R050-201 (manufactured by PerkinElmer). The measurement was performed in accordance with the attached instructions. The amount of reduction of testosterone production in the presence of the compound was obtained as a relative value with respect to the amount of testosterone in the absence of the enzyme set at 0% and the amount of testosterone produced in the absence of the compound set at 100%. Then, IC50 values were calculated by the Logistic regression method.

Data set [1] has as its target T3, LNCaP cells expressing human 17βHSD type 5 (Homo sapiens, UniProt P42330).
T3 sequence (P42330 1-323): T1 sequence (P42330 1-323)
As to the kind of experiment: Cell growth capability using LNCaP cells expressing human 17βHSD type 5 (CellTiter-Glo). The data set is classed as cell-based. Particulars: androstenedione 10 nM, culturing for 7 days; read-out: LNCaP-17β5 IC50 (cell growth inhibitory activity). Here is the method: LNCaP cells of the human prostate cancer-derived cell line were transformed with a plasmid containing the clone selected in section 1 above and then a cell line showing stable expression was obtained.
9000 cells/well of the transformed cells obtained in section 4 above were seeded in a 96-well plate and cultured overnight. Then, androstenedione, in conjunction with a test compound, was added thereto at a final concentration of 10 nM, followed by culturing for 7 days. After the culturing, number of the cells was counted using a CellTiter-Glo (registered trademark) Luminescent Cell Viability Assay (Promega). The CellTiter-Glo (registered trademark) Luminescent Cell Viability Assay is a reagent that measures the number of the cells by monitoring an intracellular ATP level from the luminescence intensity by luciferase. The experimental manipulation was carried out in accordance with the attached instructions. The cell growth inhibitory activity in the presence of a test compound was calculated as a relative value with respect to the number of the cells in the absence of androstenedione set at proliferation of 0%, and the number of the cells in the presence of androstenedione and in the absence of the test compound set at proliferation of 100%. Then, IC50 values were calculated by the Logistic regression method.
(In general: In ATP-based viability assays light output follows the ATP content of the culture.)

A further data set concerns 5α-reductase. Particulars: patients with BPH, after administration; cited from earlier work.

Structures are written as SMILES.

Broadly, the IC50 is the concentration needed to halve the response being measured. A lower IC50 goes with greater potency in that assay. A word on the melting point: it is the temperature of the solid-liquid transition. Compound `CC(O)CC1CCN(C(=O)c2cc3ccccc3[nH]2)CC1` (stereo not drawn) [Example 30, 1-[1-(1H-indol-2-ylcarbonyl)piperidin-4-yl]propan-2-ol] had a melting point of 163 to 167 °C. This compound displayed a 50% inhibitory concentration (IC50) against human 17βHSD type 5 of 26 nM. The 50% inhibitory concentration (IC50) against human 17βHSD type 3 is greater than 10000 nM. The GI50 in data set [1] is 31 nM.
For `CC(C)(O)CC1CCN(C(=O)c2cc3cc(Cl)ccc3[nH]2)CC1` [Example 1, 1-{1-[(5-chloro-1H-indol-2-yl)carbonyl]piperidin-4-yl}-2-methylpropan-2-ol] the same measures were 178 to 180 °C, 4.5 nM, greater than 10000 nM and 8.9 nM.
As to `CC(C)(O)CC1CCN(C(=O)c2cc3cc(O)ccc3[nH]2)CC1` [Example 15, 2-{[4-(2-hydroxy-2-methylpropyl)piperidin-1-yl]carbonyl}-1H-indol-5-ol], the melting point lay in the range of 212 to 219 °C. Further, on human 17βHSD type 5, the IC50 came out at 15 nM. The half-maximal inhibitory concentration (IC50) against human 17βHSD type 3 is greater than 10000 nM. Besides, the GI50 in data set [1] worked out at 18 nM.
On the same counts, the results for `CC(C)(O)CC1CCN(C(=O)c2cc3ccccc3[nH]2)CC1` [Example 9, 1-[1-(1H-indol-2-ylcarbonyl)piperidin-4-yl]-2-methylpropan-2-ol] are 153 to 163 °C, 130 nM, greater than 10000 nM and 10 nM.
As for `CC(C)(C)NC(=O)[C@H]1CC[C@H]2[C@@H]3CC[C@H]4NC(=O)C=C[C@]4(C)[C@H]3CC[C@]12C` [finasteride], in the data set with 5α-reductase, the “concentration of DHT in the prostate relative to the concentration before the administration” value is listed as “about 20%” and the “increase of concentration of testosterone in the prostate” value is 4 fold.
As for `Cc1ccc2[nH]c(C(=O)N3CCC(CCO)CC3)cc2c1` [Example 22, 2-{1-[(5-methyl-1H-indol-2-yl)carbonyl]piperidin-4-yl}ethanol], the melting point was 163 to 165 °C. Moreover, the IC50 at human 17βHSD type 5 was determined as 21 nM. The same compound gave an IC50 on human 17βHSD type 3 greater than 10000 nM. In addition, the GI50 in data set [1] was determined as 60 nM.
The compound `COc1ccc2[nH]c(C(=O)N3CCC(CC(C)(C)O)CC3)cc2c1` [Example 25, 1-{1-[(5-methoxy-1H-indol-2-yl)carbonyl]piperidin-4-yl}-2-methylpropan-2-ol] returned an IC50 on human 17βHSD type 3 greater than 10000 nM. Also, the GI50 in data set [1] came out at 12 nM.
For `Cc1ccc2[nH]c(C(=O)N3CCC(CC(C)(C)O)CC3)c(C)c2c1` [Example 17, 1-{1-[(3,5-dimethyl-1H-indol-2-yl)carbonyl]piperidin-4-yl}-2-methylpropan-2-ol], the melting point fell in the range of 166 to 168 °C. The same compound returned a half-inhibitory concentration (IC50) on human 17βHSD type 5 of 390 nM. This compound also had a half-inhibitory concentration (IC50) at human 17βHSD type 3 greater than 10000 nM. Further, in data set [1], the GI50 stood at 20 nM.
On the same counts, the results for `Cc1ccc2[nH]c(C(=O)N3CCC(CC(C)(C)O)CC3)cc2c1` [Example 24, 2-methyl-1-{1-[(5-methyl-1H-indol-2-yl)carbonyl]piperidin-4-yl}propan-2-ol] are 149 to 150 °C, 150 nM, greater than 10000 nM and 24 nM.
Regarding `CC(C)(O)CC1CCN(C(=O)c2cc3cc([N+](=O)[O-])ccc3[nH]2)CC1` [Example 20, 2-methyl-1-{1-[(5-nitro-1H-indol-2-yl)carbonyl]piperidin-4-yl}propan-2-ol], the melting point lay within 223 to 225 °C. Also, half-maximal inhibition against human 17βHSD type 5 (IC50) required 15 nM. Further, the half-maximal inhibitory concentration (IC50) against human 17βHSD type 3 is greater than 10000 nM. Besides, the GI50 in data set [1] amounted to 29 nM.
